Measured values taken from the supplement of paper PMC10307832.

How the values were obtained:
Test in all cases: relative viability (nuclei count vs DMSO), 5 days (fraction); higher = more cells survive
SGI-1776 + Olaparib = compound: CN1CCC(CNc2ccc3ncc(-c4cccc(OC(F)(F)F)c4)n3n2)CC1 [SGI-1776] + O=C(c1cc(Cc2n[nH]c(=O)c3ccccc23)ccc1F)N1CCN(C(=O)C2CC2)CC1 [Olaparib] (partner 8 µM)
Procedure, shortened: (§1)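 Lung cancer cell lines, seeded in 1536-well plates, were treated the following day by pin tool with a single drug or with five library-drug doses (not always all listed) in √10 steps on top of a fixed anchor-drug dose. Cells were fixed and nuclei stained in one step after 5 days, and nuclei were counted. Relative viability is the nuclei count for treated wells divided by that for vehicle wells, reported as medians of duplicate plates.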

Entinostat + Decitabine = compound: Nc1ccccc1NC(=O)c1ccc(CNC(=O)OCc2cccnc2)cc1 [Entinostat] + Nc1ncn([C@H]2C[C@H](O)[C@@H](CO)O2)c(=O)n1 [Decitabine] (partner 2 µM)
Procedure, shortened: as §1

Entinostat + Lapatinib = compound: Nc1ccccc1NC(=O)c1ccc(CNC(=O)OCc2cccnc2)cc1 [Entinostat] + CS(=O)(=O)CCNCc1ccc(-c2ccc3ncnc(Nc4ccc(OCc5cccc(F)c5)c(Cl)c4)c3c2)o1 [Lapatinib] (partner 2 µM)
Procedure, shortened: as §1

SGI-1776 + Luminespib = compound: CN1CCC(CNc2ccc3ncc(-c4cccc(OC(F)(F)F)c4)n3n2)CC1 [SGI-1776] + CCNC(=O)c1noc(-c2cc(C(C)C)c(O)cc2O)c1-c1ccc(CN2CCOCC2)cc1 [Luminespib] (partner 0.01 µM)
Procedure, shortened: as §1

Cell Line | relative viability (SGI-1776 + Olaparib; first compound 0.08 µM) | relative viability (SGI-1776 + Olaparib; first compound 0.8 µM) | relative viability (SGI-1776 + Olaparib; first compound 2.53 µM) | relative viability (SGI-1776 + Olaparib; first compound 8 µM) | relative viability (Entinostat + Decitabine; first compound 0.02 µM) | relative viability (Entinostat + Decitabine; first compound 0.06325 µM) | relative viability (Entinostat + Decitabine; first compound 0.2 µM) | relative viability (Entinostat + Decitabine; first compound 0.6325 µM) | relative viability (Entinostat + Decitabine; first compound 2 µM) | relative viability (Entinostat + Lapatinib; first compound 0.02 µM) | relative viability (Entinostat + Lapatinib; first compound 0.06325 µM) | relative viability (Entinostat + Lapatinib; first compound 0.2 µM) | relative viability (Entinostat + Lapatinib; first compound 0.6325 µM) | relative viability (Entinostat + Lapatinib; first compound 2 µM) | relative viability (SGI-1776 + Luminespib; first compound 0.08 µM) | relative viability (SGI-1776 + Luminespib; first compound 0.8 µM) | relative viability (SGI-1776 + Luminespib; first compound 2.53 µM) | relative viability (SGI-1776 + Luminespib; first compound 8 µM)
NCI-H460 | 0.503 | 0.482 | 0.431 | 0.481 | 0.438 | 0.372 | 0.203 | 0.0553 | 0.0422 | 1 | 0.761 | 0.462 | 0.0242 | 0.0172 | 0.0293 | 0.0297 | 0.0268 | 0.019
NCI-H520 | 0.36 | 0.318 | 0.386 | 0.203 | 0.571 | 0.464 | 0.482 | 0.385 | 0.35 | 1.03 | 0.946 | 0.864 | 0.776 | 0.301 | 0.209 | 0.218 | 0.244 | 0.281
NCI-H596 | 0.662 | 1 | 0.82 | 0.696 | 0.9 | 1.11 | 0.869 | 1.01 | 0.66 | 1.06 | 1.13 | 1.07 | 0.81 | 0.709 | 0.975 | 0.934 | 0.798 | 0.941
NCI-H647 | 0.67 | 0.484 | 0.438 | 0.206 | 0.382 | 0.256 | 0.258 | 0.166 | 0.166 | 0.936 | 0.868 | 0.996 | 0.322 | 0.101 | 0.263 | 0.198 | 0.192 | 0.144
NCI-H650 | 0.455 | 0.409 | 0.438 | 0.326 | 0.312 | 0.336 | 0.252 | 0.278 | 0.226 | 1.02 | 1.24 | 0.976 | 0.543 | 0.199 | 0.863 | 0.734 | 0.9 | 0.858
NCI-H661 | 0.733 | 0.754 | 0.843 | 0.846 | 0.58 | 0.549 | 0.538 | 0.479 | 0.356 | 0.573 | 0.587 | 0.8 | 0.661 | 0.476 | 0.996 | 0.977 | 1 | 0.913
NCI-H727 | 0.69 | 0.639 | 0.659 | 0.679 | 0.913 | 1.35 | 1.03 | 0.853 | 0.681 | 0.941 | 0.804 | 0.793 | 0.533 | 0.451 | 0.408 | 0.337 | 0.311 | 0.253
NCI-H838 | 0.776 | 0.754 | 0.695 | 0.56 | 0.484 | 0.541 | 0.477 | 0.431 | 0.341 | 1.13 | 1.12 | 0.983 | 0.696 | 0.255 | 0.231 | 0.331 | 0.349 | 0.254
NCI-H1355 | 0.749 | 0.695 | 0.78 | 0.687 | 0.356 | 0.335 | 0.3 | 0.315 | 0.266 | 1.03 | 0.978 | 0.798 | 0.568 | 0.513 | 0.68 | 0.625 | 0.607 | 0.551
NCI-H1395 | 0.473 | 0.452 | 0.438 | 0.347 | 0.693 | 0.726 | 0.626 | 0.556 | 0.492 | 1.1 | 1.21 | 0.901 | 0.566 | 0.569 | 0.768 | 0.772 | 0.573 | 0.414
NCI-H1437 | 0.65 | 0.618 | 0.6 | 0.552 | 0.522 | 0.436 | 0.357 | 0.267 | 0.217 | 0.671 | 0.399 | 0.297 | 0.183 | 0.126 | 1.12 | 1.19 | 1.22 | 1.12
NCI-H1650 | 0.8 | 0.946 | 0.734 | 0.607 | 0.381 | 0.394 | 0.43 | 0.258 | 0.273 | 0.79 | 0.897 | 0.888 | 0.521 | 0.329 | 0.211 | 0.198 | 0.195 | 0.172
NCI-H1651 | 0.205 | 0.187 | 0.18 | 0.174 | 0.666 | 0.824 | 0.609 | 0.558 | 0.19 | 0.816 | 0.905 | 0.925 | 0.726 | 0.217 | 0.823 | 0.977 | 0.784 | 0.642
NCI-H1666 | 0.794 | 0.782 | 0.838 | 0.729 | 0.887 | 0.793 | 0.707 | 0.669 | 0.511 | 0.624 | 0.564 | 0.566 | 0.282 | 0.264 | 1.03 | 0.995 | 0.972 | 0.877
NCI-H1734 | 0.69 | 0.691 | 0.715 | 0.567 | 0.555 | 0.483 | 0.464 | 0.451 | 0.298 | 1.16 | 1.11 | 1.05 | 0.787 | 0.481 | 0.193 | 0.201 | 0.19 | 0.163
NCI-H1755 | 0.913 | 0.848 | 0.798 | 0.671 | 0.681 | 0.71 | 0.583 | 0.494 | 0.45 | 1.02 | 1.02 | 0.95 | 0.532 | 0.264 | 0.482 | 0.515 | 0.408 | 0.326
NCI-H1792 | 0.623 | 0.533 | 0.429 | 0.453 | 0.613 | 0.505 | 0.48 | 0.354 | 0.196 | 0.953 | 0.96 | 0.836 | 0.767 | 0.513 | 0.371 | 0.558 | 0.431 | 0.264
